From ChEMBL document CHEMBL1131846, “Selective A1-adenosine receptor antagonists identified using yeast Saccharomyces cerevisiae functional assays” (Bioorg Med Chem Lett, 1999)
pIC50, pKi: −log10 of the molar value.

Legend:
[1] = target: T1, Adenosine receptor A2a (Homo sapiens, UniProt P29274); assay: Inhibitory activity against membranes from HEK293 cells stably expressing the human A2a receptor (hA2a); type: cell-based
[2] = target: T2, Adenosine receptor A1 (Homo sapiens, UniProt P30542); assay: Inhibitory activity against binding of [3H]DPCPX to human A1 receptor (hA1) using competition binding assay
T2 sequence (P30542 whole entry): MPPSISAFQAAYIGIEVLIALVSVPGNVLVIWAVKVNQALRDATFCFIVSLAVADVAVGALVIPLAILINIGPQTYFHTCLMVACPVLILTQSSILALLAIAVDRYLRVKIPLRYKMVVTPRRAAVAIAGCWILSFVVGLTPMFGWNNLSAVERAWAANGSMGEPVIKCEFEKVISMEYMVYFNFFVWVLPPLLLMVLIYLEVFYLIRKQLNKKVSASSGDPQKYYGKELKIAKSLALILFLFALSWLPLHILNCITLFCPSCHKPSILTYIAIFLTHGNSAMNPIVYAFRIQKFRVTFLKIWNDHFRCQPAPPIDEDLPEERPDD

[3] = target: T2, Adenosine receptor A1; assay: Inhibitory activity against membranes from yeast cells transformed with human A1 receptor (hA1); type: cell-based
[4] = target: T1, Adenosine receptor A2a; assay: Inhibitory activity against binding of [3H]CGS-21680 to human A2a receptor (hA2a) using competition binding assay
[5] = target: T1, Adenosine receptor A2a; assay: Inhibitory activity against binding of the [3H]CGS-21680 to human A2a receptor (hA2a) radioligands using competition binding assay
[6] = target: T2, Adenosine receptor A1; assay: Inhibitory activity against binding of the [3H]DPCPX to human A1 receptor (hA1) radioligands using competition binding assay
[7] = target: T1, Adenosine receptor A2a; assay: Inhibitory activity against binding of [3H]CGS-21680 to human A2a receptor (hA2a) using competition binding assay at a concentration of 10 uM
[8] = target: T1, Adenosine receptor A2a; assay: Inhibitory activity against binding of the [3H]CGS-21680 to human A2a receptor (hA2a) radioligands using competition binding assay at a concentration of 10 uM
[9] = target: T3, Adenosine receptor A1 (Homo sapiens) (UniProt P30542); assay: Inhibitory activity against binding of the [3H]DPCPX to human A1 receptor (hA1) radioligands using competition binding assay at a concentration of 10 uM
T3 sequence (whole entry): T2 sequence (P30542 whole entry)

[10] = target: T3, Adenosine receptor A1 (Homo sapiens); assay: Inhibitory activity against binding of [3H]DPCPX to human A1 receptor (hA1) using competition binding assay at a concentration of 10 uM
[11] = target: T1, Adenosine receptor A2a; assay: Inhibitory activity against membranes from HEK293 cells stably expressing the human A2a receptor (hA2a) at a concentration of 10 uM; type: cell-based

T1 sequence (P29274 whole entry): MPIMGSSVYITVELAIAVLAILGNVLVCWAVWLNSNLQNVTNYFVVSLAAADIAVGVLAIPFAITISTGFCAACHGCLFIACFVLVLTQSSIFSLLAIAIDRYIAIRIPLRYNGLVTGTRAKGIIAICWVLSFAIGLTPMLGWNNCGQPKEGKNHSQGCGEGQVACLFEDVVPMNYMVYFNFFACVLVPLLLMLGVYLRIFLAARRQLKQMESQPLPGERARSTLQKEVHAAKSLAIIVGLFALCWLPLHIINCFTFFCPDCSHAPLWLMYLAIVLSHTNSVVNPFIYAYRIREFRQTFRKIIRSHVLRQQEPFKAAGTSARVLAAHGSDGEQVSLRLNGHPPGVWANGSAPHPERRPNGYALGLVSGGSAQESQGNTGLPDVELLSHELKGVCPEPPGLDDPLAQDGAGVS

Row | SMILES | pIC50 [1] | pIC50 [2] | pIC50 [3] | pIC50 [4] | pKi [5] | pKi [6] | inhibition [7] [%] | inhibition [8] [%] | inhibition [9] [%] | inhibition [10] [%] | inhibition [11] [%]
1 | Cc1[nH]c2nc(-c3ccccc3)nc(NCCN3CCNC3=O)c2c1C | 6.14 | 6.44 | 6.37 | 6.22 | 6.67 | 6.84 |  |  |  |  | 
2 | Cc1nc2nc(-c3ccccc3)[nH]c(N[C@H](C)c3ccccc3)c-2c1C | 5.41 | 5.70 | 5.79 |  |  | 6.01 | 61 | 61 |  |  | 
3 | Cc1[nH]c2nc(-c3ccccc3)nc(N[C@@H]3Cc4ccccc4[C@H]3O)c2c1C | 5.49 | 5.74 | 5.77 |  |  | 6.05 | 59 | 59 |  |  | 
4 | Cc1[nH]c2nc(-c3ccccc3)nc(NCc3ccncc3)c2c1C | 5.70 | 6.58 | 6.65 | 5.77 | 6.09 | 6.88 |  |  |  |  | 
5 | Cc1[nH]c2nc(-c3ccccc3)nc(N[C@H](CO)CC(C)C)c2c1C | 5.57 | 5.72 | 5.76 | 5.47 | 5.94 | 6.02 |  |  |  |  | 
6 | CC(=O)NCCNc1nc(-c2ccccc2)nc2[nH]c(C)c(C)c12 | 7.32 |  |  | 7.32 | 7.64 |  |  |  |  |  | 
7 | Cc1[nH]c2nc(-c3ccccc3)nc(N[C@@H]3CCCCNC3=O)c2c1C | 5.68 | 5.81 | 5.90 | 5.69 | 6.02 | 6.11 |  |  |  |  | 
8 | Cc1[nH]c2nc(-c3ccccc3)nc(NCCCN3CCCC3=O)c2c1C |  |  | 5.25 |  |  |  | 54 | 54 | 75 | 75 | 58
